Consider three compounds from patent US9993002B2, “1,2,3-thiadiazol-5yl-urea derivatives, use thereof for regulating plant senescence and preparations containing these derivatives” (USTAV EXPERIMENTALNI BOTANIKY AV CR, V.V.I., priority 2014, dated 2018).

Read-outs that look alike come from different tables or passages of the source.

For data set [1], the system named is detached leaves of Triticum aestivum cv. Hereward. As to the kind of experiment: Membrane lipid peroxidation (MDA, TBA method) in detached wheat leaves in the dark. To be noted: for MDA: four days in the dark. As to the method: A typical symptom associated with senescence as a direct consequence of increased reactive oxygen species is membrane lipid peroxidation which produces malondialdehyde (MDA). Therefore the levels of MDA, a decomposition product of lipid peroxidation, were measured in detached wheat leaves that were exposed to the prepared novel derivatives or BAP for four days in the dark as described in Example 7. MDA levels were measured using a thiobarbituric acid (TBA) method. In detail, 100 mg of fresh plant material was homogenized by high speed shaking in a ball mill (MM301, Retsch, Germany) with 1 mL of 70% methanol. The crude extract was centrifuged at 10,000×g for 5 min, and 100 μL aliquot of supernatant was vortexed with 100 μL of 0.5% (w/v) TBA containing 0.1% (w/v) trichloroacetic acid, and the resulting solution was then incubated for 30 min at 95° C. The samples were quickly cooled on ice and centrifuged for 5 min at 1000 g. The absorbance of supernatant was measured at 532 nm with background subtraction at 600 nm and the amount of MDA-TBA complex was calculated from the coefficient of absorbance 155 mM^−1 cm^−1.

For data set [2], the system named is detached leaf segments of Triticum aestivum cv. Hereward. Kind of data set: Senescence bioassay on wheat leaf segments in dark/light conditions. The settings on record: foliar, 168 h, read-out: Senescence bioassay (IC50). How it is done: (§1) Seeds of winter wheat, Triticum aestivum cv. Hereward, were washed under running water for 24 hours and then sown on perlite soaked with Hogland's solution. They were placed in the growth chamber at 25° C. with a 16/8 h light period at 50 μmol·m^−2·s^−1. After 7 days, the first leaf was fully developed and the second leaf had started to grow. A tip section of the first leaf, approximately 4 cm long, was removed from 4 seedlings and trimmed slightly to a combined weight of 100 mg. The basal ends of the four leaf tips were placed into the 96-wells plate containing 150 μL of the tested derivative solution each. The entire plate was inserted into a plastic box lined with paper tissues soaked in distilled water to prevent leaf sections from drying out. After 96 h incubation in the dark at 25° C., the leaves were removed and chlorophyll extracted by heating at 80° C. for 10 min in 5 mL of 80% ethanol (v/v). The sample volume was then restored to 5 mL by the addition of 80% ethanol (v/v). The absorbance of the extract was recorded at 665 nm. In addition, chlorophyll extracts from fresh leaves and leaf tips incubated in deionised water were measured. The results are means of five replicates and the entire test was repeated at least twice. […] The compounds to be tested were dissolved in dimethylsulfoxide (DMSO) and the solution brought up to 10^−3 M with distilled water. […] The IC50 values were determined for standard (BAP) and novel tested compounds.
The ability of the novel compounds to retard chlorophyll degradation in detached wheat leaves was tested also in the light conditions. The experiment was performed as described in Example 7 with modifications as follows—the incubation of the leaves with the compounds was done in the dark/light conditions 8/16 (light—100 μmol·m^−2·s^−1) at 22° C. for 7 days. […] The newly prepared substituted 1,2,3-thiadiazol-5-yl urea derivatives of the invention are much stronger anti-senescent compounds in comparison to the BAP in retarding senescence under optimal (dark/light) conditions.

Data set [3] in a line: Toxicity towards human skin fibroblasts (Calcein AM assay). The data set is classed as cell-based. As to the method: Cytotoxicity of the compounds to human skin fibroblasts (BJ cell line) was determined in a standard Calceinovém AM test. Cells were maintained in plastic tissue culture flasks and grown in Dulbecco's modified Eagle's medium for cell culture (DMEM) at 37° C. in 5% CO2 and 100% humidity. Cells were placed into 96-well microtiter plates (Nunc, Denmark) and after 12 hours pre-incubation, the tested compound was added to a final concentration ranging from […]. Cells were incubated for 72 hours. At the end of incubation period Calcein AM was added in PBS to a final concentration of […]. After 1 hour of incubation fluorescence was measured at 485/538 nm (ex/em wavelength) using Fluoroskan Ascent (Labsystems, Finland). IC50 values (the concentration causing reduction of calcein AM conversion to 50%) were calculated from the curves obtained. All experiments were repeated four times with a maximum deviation of 15%. Due to the limited solubility of substances in water, all the tested compounds were dissolved in DMSO and diluted with water to a final concentration.

Data set [4] has as its system wheat leaves. As to the kind of experiment: Ethylene production (defoliating activity) assay. To be noted: 10 μM; for Ethylene produced: 96 h in the dark at 25° C., control 270 (±15). Details: species or system Triticum aestivum. How it is done: We investigated the effect of the compounds of the invention on ethylene production in wheat leaves. The leaves were obtained as described in Example 8, placed in 5 mL glass vials and immersed at 10 μM solutions of tested compounds of the invention or TDZ. Distilled water was used as a control treatment. After 96 h incubation in the dark at 25° C., 1 mL of air was taken from the vials and content of ethylene in it was determined using gas chromatography with the flame ionization detector (GC-FID) method described by Fišerová et al. (Fišerová H, Kula E, Klemš M, Reinöhl V (2001) Phytohormones as indicators of the degree of damage in birch (Betula pendula). Biológia 56: 405-409).

The test system of data set [5] is detached leaf segments of Triticum aestivum cv. Hereward. Kind of data set: Senescence bioassay on wheat leaf segments in dark conditions. The settings on record: Triticum aestivum, foliar, 96 h, read-out: Senescence bioassay (IC50). As to the method: as §1
Data set [6] has as its system Arabidopsis thaliana (wild-type Col-0). Kind of data set: Root growth and lateral root formation of Arabidopsis. To be noted: 10 nM, two weeks after transfer. The data set is classed as in vivo. How it is done:
To investigate in vivo effect of the new derivatives on the root growth and development, seeds of Arabidopsis thaliana (wild-type Col-0) were surface sterilized and sown on vertical plates on half-strength Murashige-Skoog medium (supplied with 0.1% sucrose and 6 g/L phytagel) containing 10 nM BAP or 10 nM 1,2,3-thiadiazol-5-yl-urea derivative, or 0.01% DMSO (solvent control). After vernalization (4 days in the dark, 4° C.) plates were transferred into the growth chamber (22° C., 16/8 light/dark). Two weeks after transfer, seedlings were photographed and root elongation and lateral root formation was scored using Scion image software (Scion Corp., Frederick, Md., USA). At least 40 plants were measured for each treatment.

Where [7] appears, read: dark/light 8/16, 22° C., 7 days.
Where [8] appears, read: dark, 25° C., chlorophyll absorbance 665 nm.

One may read the IC50 as the concentration that gives 50% inhibition. For `COCCNC(=O)Nc1cnns1` [Compound 6, 1-(2-methoxy-ethyl)-3-[1,2,3]thiadiazol-5-yl-urea], the “level of membrane lipid peroxidation during dark senescence reduced to” value in data set [1] (compared to untreated control) is given as 44.6%. Moreover, the MDA in data set [1] was 9.6 (±0.7) nmol/g FW. For the same compound, the IC50 was determined as 30 nM in data set [2] (setting [7]) and 950 nM in data set [5] (setting [8]). In data set [3], the CC50 at 72 h is greater than 100000 nM. For the same compound, the Ethylene produced in data set [4] is given as 275 (±14) nL/g FW. Besides, in data set [6], the Lateral root number was 17 (±9). Moreover, in data set [6], the Primary root lenght is recorded as 48 (±15) mm.

For the compound `O=C(NCCCl)Nc1cnns1` [Compound 65, 1-(2-Chloro-ethyl)-3-[1,2,3]thiadiazol-5-yl-urea], the MDA in data set [1] is 16.4 (±0.5) nmol/g FW. The half-maximal inhibitory concentration (IC50) in data set [2] came to 700 nM. In addition, in data set [3] (BJ cell line, 72 hours, read-out: not toxic up to the highest tested concentration (Calcein AM IC50)), the CC50 at 72 h is greater than 100000 nM. In data set [4], the Ethylene produced is given as 335 (±25) nL/g FW. For the same compound, the IC50 in data set [5] worked out at 14000 nM. In data set [6], the Lateral root number is 12 (±8) and the Primary root lenght is reported as 36 (±8) mm.

With `O=C(NCc1ccco1)Nc1cnns1` [Compound 84, N-furfuryl-N′-1,2,3-thiadiazol-5-yl-urea], the MDA in data set [1] was 12.7 (±1.1) nmol/g FW. Moreover, in data set [2] (setting [7]), the IC50 was 30 nM. In addition, the CC50 at 72 h in data set [3] was greater than 100000 nM. In addition, the “elevation of ethylene production compared to untreated control” value in data set [4] (96 h) is listed as 25%. The Ethylene produced in data set [4] is 337 (±28) nL/g FW. In addition, the IC50 in data set [5] (setting [8]) worked out at 1200 nM. For the same compound, in data set [6], the Lateral root number is on record as 13 (±6) and the Primary root lenght is 30 (±6) mm.
